{"source": "a melting point compilation (Tetko et al.; mined from patent text by program, amines drawn as free bases though some values may be those of a salt)", "data": [{"units": {"melting point": "°C"}, "values": [{"smiles": "CCOC(=O)c1cc(-n2c(=O)[nH]c3c(c2=O)CCC3)ccc1[N+](=O)[O-]", "melting point": "205 to 208"}, {"smiles": "CCOC(=O)C(C#N)=CNc1ccc(C)cn1", "melting point": "170 to 172"}, {"smiles": "O=S1(=O)CCC(c2cc(F)ccc2F)(S(=O)(=O)c2ccc(Cl)cc2)CC1", "melting point": "204 to 206"}, {"smiles": "CC(C)c1[nH]n(-c2c(Cl)cc(Cl)cc2Cl)c2nc(C(O)c3ccccc3)nc(=O)c1-2", "note": "(centres undefined)", "melting point": "246 to 248"}, {"smiles": "N#CCCNC(=O)c1cc(F)cc(-c2cccc3cc(Cc4ccc(F)c(Cl)c4)sc23)c1", "melting point": "127 to 128"}, {"smiles": "Cc1ccc(-c2nc(COc3ccc(CCCn4ccnc4)cc3Cl)co2)s1", "melting point": "95 to 96"}, {"smiles": "COc1ccc(C2(O)CCN(C(=O)OCc3ccccc3)CC2)cc1", "melting point": 98}, {"smiles": "O=C1C(Cc2ccccc2C(F)F)c2ccccc2C12COc1cc3c(cc12)OCCO3", "note": "(centres undefined)", "melting point": "191 to 193"}, {"smiles": "O=C(O)c1cc(=O)cc(-c2ccccc2O)o1", "melting point": "213 to 215"}, {"smiles": "CC(=O)OC1CSC(Oc2cccnc2C(C)=O)C(OC(C)=O)C1OC(C)=O", "note": "(centres undefined)", "melting point": 168}, {"smiles": "O=C(O)Cc1ccccc1OCc1ccc(OCc2csc(-c3ccccc3)n2)cc1", "melting point": "115 to 116"}, {"smiles": "CN(C)C(=O)c1nc(-c2cnccn2)nc2c1c1ccc(Cl)cc1n2C", "melting point": "272 to 273"}, {"smiles": "CCCCNC(=O)NCCCn1c(CCCC)nc2c(N)nc3ccccc3c21", "melting point": 186}, {"smiles": "O=[N+]([O-])c1ccc2nc(-c3ccc(Cl)cc3)sc2c1", "melting point": "227 to 232"}, {"smiles": "CN(c1cccc(C(F)(F)F)c1)c1cc(Oc2cccc(C(F)(F)F)c2)ncn1", "melting point": "118 to 119"}, {"smiles": "OC(Cn1cncn1)c1ccc(-c2ccc(Cl)cc2)cc1", "note": "(centres undefined)", "melting point": 199}, {"smiles": "CCCCCn1nc(-c2ccc(F)cc2)c(-c2ccc(S(C)(=O)=O)cc2)cc1=O", "melting point": "65 to 67"}, {"smiles": "N#Cc1cccnc1N1CCN(Cc2nc3ccccc3[nH]2)CC1", "melting point": "208 to 210"}, {"smiles": "CCn1cc(C)c2cnc(NC(=O)c3ccc(C(C)(C)O)cc3)cc21", "melting point": "198 to 200"}, {"smiles": "CNC1(CC2CCCCC2)C(=O)N(S(=O)(=O)c2ccc([N+](=O)[O-])cc2OC)c2ccc(Cl)cc21", "note": "(centres undefined)", "melting point": 207}, {"smiles": "ClCc1cccc2c(C3CCCCC3)nccc12", "melting point": "88.4 to 89.4"}, {"smiles": "O=C1CCCN1c1c([N+](=O)[O-])cc(C(F)(F)F)c(Cl)c1[N+](=O)[O-]", "melting point": "121 to 122"}, {"smiles": "CC(C)(C)n1nc(Nc2ccccc2)c(C#N)c1N", "melting point": "123 to 125"}, {"smiles": "O=c1[nH]c2cc(Cl)ccc2c(=O)n1S(=O)(=O)c1cccc2cccnc12", "melting point": "284 to 286"}, {"smiles": "Cc1nc(-n2ccn(Cc3ccc(F)cc3)c2=O)sc1C(=O)NCc1ccccc1", "melting point": "167 to 168"}, {"smiles": "CCCC(CCC)n1nnc2c(Cl)nc(C)nc21", "melting point": "92 to 93"}, {"smiles": "CCCCCCCCC#CCCCCCCCCCCCC(=O)O", "melting point": 58}, {"smiles": "Cc1cc(F)ccc1-c1nc(NCCNC(=O)Nc2cccc(F)c2)nc2c1ccc(=O)n2-c1c(F)cccc1F", "melting point": "131 to 144"}, {"smiles": "COc1ccc(-c2cnc(C#N)nc2)cc1OC1CCCC1", "melting point": "121 to 123"}, {"smiles": "CC(C)Oc1cccc(-c2nc3ncccc3o2)c1", "melting point": "68.5 to 70.5"}, {"smiles": "COc1cc(CNC(=O)c2ccc3n2Cc2ccccc2N(C(=O)c2ccc(-c4ccccc4C)c(C)c2)C3)cc(OC)c1", "melting point": "183 to 184"}, {"smiles": "CC(C)c1ccc([N+](=O)[O-])c(C(C)C)c1NC(=O)CN1CCN(CCSc2nc3ccccc3o2)CC1", "melting point": "143 to 145"}, {"smiles": "CNC(=S)N1CCc2cc(S(=O)(=O)N3CC(c4ccccc4)NC3=O)ccc21", "note": "(centres undefined)", "melting point": "217 to 219"}, {"smiles": "O=C1Nc2c(Cl)cccc2C1(O)c1ccccc1", "note": "(centres undefined)", "melting point": "154 to 156"}, {"smiles": "COc1ccc(-c2c(Cl)c(CNC(C)(C)C)nc3sc4c(c23)CCN(C(=O)c2ccccc2)C4)cc1OC", "melting point": "204 to 205"}, {"smiles": "Nc1cc(-c2ccccc2)nn1-c1c(Cl)cc(C(F)(F)F)cc1Cl", "melting point": 142}, {"smiles": "C=C(Cl)Cc1cc2c(C)cc(=O)oc2c(C)c1O", "melting point": "135 to 163"}, {"smiles": "O=C1CN(C(=O)c2ccccc2)c2cc(F)ccc2N1", "melting point": "226 to 227"}, {"smiles": "O=S1(=O)N=CN(C2CC2)c2cccc(F)c21", "melting point": "156 to 157"}, {"smiles": "O=C1NC(=O)C(S(=O)(=O)c2ccccn2)S1", "note": "(centres undefined)", "melting point": "129 to 131"}, {"smiles": "COc1cc2nc(S(=O)Cc3cc(N(C)C)c(Cl)cn3)[nH]c2cc1OC", "note": "(centres undefined)", "melting point": "164 to 165"}, {"smiles": "COc1ccc(Nc2nc(NC3CCCCCC3)nc(OCC3CCCN3)n2)cc1Cl", "note": "(centres undefined)", "melting point": "84 to 86"}, {"smiles": "CNS(=O)(=O)c1ccc([N+](=O)[O-])cc1[N+](=O)[O-]", "melting point": 155}, {"smiles": "CN1CCN(C(=O)CCC(=O)c2ccc3[nH]c4ncc(Cl)cc4c3c2)CC1", "melting point": 233}, {"smiles": "CCCc1nc2c(N)nc3cccnc3c2n1CCOCCON=C(C)C", "melting point": "127 to 128"}, {"smiles": "OC(CN1CCNCC1)Cn1c2ccccc2c2cc(-c3ccccc3)ccc21", "note": "(centres undefined)", "melting point": 120}, {"smiles": "COc1ccc2c(c1)S(=O)(=O)C(C(=O)NCCCCCC(=O)O)C(=O)N2C", "note": "(centres undefined)", "melting point": "110 to 112"}, {"smiles": "CC(=O)OC1CSC(Oc2cc(-c3cccnc3)cnc2F)C(OC(C)=O)C1OC(C)=O", "note": "(centres undefined)", "melting point": "67 to 68"}, {"smiles": "CCN(CC)CCOCCC1CCN(C(=O)N2c3ccccc3C(=O)Nc3cccnc32)CC1", "melting point": "119 to 120"}, {"smiles": "CC(C)c1cc(C(C)C)c(CC(=O)NS(=O)(=O)Oc2c(C(C)C)cc(SC#N)cc2C(C)C)c(C(C)C)c1", "melting point": "164 to 165"}, {"smiles": "Cc1c(C(=O)O)ccc2c1[nH]c1ccccc12", "melting point": "> 240"}, {"smiles": "NS(=O)(=O)c1cccc(-c2cc(-c3nc(-c4cccc(C(F)(F)F)c4)cc(C(F)(F)F)n3)ccn2)c1", "melting point": 244}, {"smiles": "CC(C)c1[nH]nc(C(N)=O)c1[N+](=O)[O-]", "melting point": "179 to 180"}, {"smiles": "Cc1cc(-n2c(=O)[nH]c3ccccc32)cc2c1NC(=O)CC2C", "note": "(centres undefined)", "melting point": "250 to 254"}, {"smiles": "O=C1NCc2cccnc2N1c1cccc(I)c1", "melting point": "175 to 177"}, {"smiles": "CC(C)Oc1ccc(-c2nn(C(C)c3oc4ccccc4c(=O)c3-c3cccc(F)c3)c3ncnc(N)c23)cc1", "note": "(centres undefined)", "melting point": "224 to 226"}, {"smiles": "COC(=O)c1cc(N)cc(CNC(=O)OC(C)(C)C)c1", "melting point": "57 to 65"}, {"smiles": "CNC(=S)NCCSCc1cnccn1", "melting point": "99.5 to 100"}, {"smiles": "CC(C)C1=C(C#N)C(c2cccc(N3CCOCC3)c2)c2c[nH]nc2N1", "note": "(centres undefined)", "melting point": "254 to 257"}, {"smiles": "COC(=O)CC[C@@H](Cc1cn(CCCc2ccccc2)c2ccccc12)NC(=O)CCCCCCc1ccccc1", "melting point": "79.4 to 81"}, {"smiles": "CCc1noc(-c2cn(-c3ccc(Oc4ccccc4)cc3)cn2)n1", "melting point": "172 to 173"}, {"smiles": "NC(=O)c1ccc(F)c2c1CC(N(CCC(=O)c1c[nH]c3ccc(F)cc13)C1CCC1)CO2", "note": "(centres undefined)", "melting point": 139}, {"smiles": "CCOC(=O)c1c([N+](=O)[O-])ccc(OC)c1OC", "melting point": "70 to 72"}, {"smiles": "O=C1CCC(N2Cc3c(OCc4ccc(Cn5ccnc5)cc4)cccc3C2=O)C(=O)N1", "note": "(centres undefined)", "melting point": "248 to 250"}, {"smiles": "CCCn1c(=O)c2[nH]c(C3CCCC3)nc2n(CCc2ccc(NC(C)=O)cc2)c1=O", "melting point": "> 270"}, {"smiles": "NC(=O)N1CC(Oc2cccc(C(F)(F)F)c2)C1", "melting point": "151 to 152"}, {"smiles": "CCCCCCCCCCCCCCCCCCOc1coc(CO)cc1=O", "melting point": "71 to 73"}, {"smiles": "CC1CN(Cn2cc(C#N)c(-c3cccc(Cl)c3Cl)c2)CC(C)O1", "note": "(centres undefined)", "melting point": "91 to 97"}, {"smiles": "Cc1ccc([N+](=O)[O-])c(C=C2NC(=O)NC2=O)c1C", "melting point": "293 to 295"}]}]}
